Measurements from US20040072162A1, “Hiv peptides and nucleic acids encoding them for diagnosis and control of hiv infection” (priority 2000, published 2004).
Peptide text beside a SMILES is read from it.

molecular target: HLA-A2 MHC-I (HLA-A*0204) (Homo sapiens, UniProt P04439, D140Y/D185E/D98H/E176V/E277Q/G131W/G231S/I119V/I121M/I166T/I218V/L300P/L318F/N151K/N90K/P208A/P217A/Q86G/Q94H/R138H/R169H/T345S); test: biochemical

Structure (SMILES)	Kd [µM]
CC(C)C[C@H](NC(=O)[C@@H](N)CCCCN)C(=O)NCC(=O)N[C@@H](CCCCN)C(=O)N[C@@H](C)C(=O)NCC(=O)N[C@@H](Cc1ccc(O)cc1)C(=O)N[C@H](C(=O)N[C@H](C(=O)O)[C@@H](C)O)C(C)C [8.41nat] (H-KLGKAGYVT-OH)	0.17
CC[C@H](C)[C@H](NC(=O)[C@H](CCC(N)=O)NC(=O)[C@@H]1CCCN1C(=O)[C@H](CO)NC(=O)CNC(=O)[C@H](CCSC)NC(=O)CN)C(=O)N[C@@H](CC(C)C)C(=O)N[C@H](C(=O)O)C(C)C [8.15natM] (H-GMGSPQILV-OH)	0.12
CSCC[C@H](NC(=O)[C@H](CCC(=O)O)NC(=O)[C@H](CCC(=O)O)NC(=O)[C@H](CC(C)C)NC(=O)[C@@H](NC(=O)[C@H](C)N)[C@@H](C)O)C(=O)N[C@@H](CCSC)C(=O)N[C@H](C(=O)N[C@@H](C)C(=O)O)[C@@H](C)O [8.65nat] (H-ATLEEMMTA-OH)	0.077
CC[C@H](C)[C@H](NC(=O)[C@H](CCC(N)=O)NC(=O)[C@H](CCC(=O)O)NC(=O)[C@H](CCC(N)=O)NC(=O)[C@H](CC(C)C)NC(=O)[C@@H](N)[C@@H](C)O)C(=O)NCC(=O)N[C@@H](Cc1c[nH]c2ccccc12)C(=O)N[C@H](C(=O)O)C(C)C [8.56mod] (H-TLQEQIGWV-OH)	0.042
CC(C)C[C@H](NC(=O)[C@H](CCCCN)NC(=O)[C@H](Cc1ccccc1)NC(=O)[C@H](CS)NC(=O)[C@H](Cc1c[nH]c2ccccc12)NC(=O)CNC(=O)[C@H](Cc1ccccc1)NC(=O)[C@H](CS)NC(=O)[C@@H](N)CC(C)C)C(=O)O [8.45natC] (H-LCFGWCFKL-OH)	0.58
CSCC[C@H](NC(=O)[C@H](CCC(=O)O)NC(=O)[C@@H](NC(=O)[C@H](CC(C)C)NC(=O)[C@H](C)N)C(C)C)C(=O)NCC(=O)N[C@@H](Cc1c[nH]cn1)C(=O)N[C@@H](Cc1c[nH]cn1)C(=O)N[C@H](C(=O)O)C(C)C [8.3mod] (H-ALVEMGHHV-OH)	0.0025
CC[C@H](C)[C@H](NC(=O)[C@H](CO)NC(=O)[C@H](C)NC(=O)[C@H](C)NC(=O)CNC(=O)[C@H](CC(C)C)NC(=O)[C@@H](N)[C@@H](C)O)C(=O)N[C@H](C(=O)N[C@H](C(=O)O)C(C)C)[C@@H](C)O [8.85mod] (H-TLGAASITV-OH)	0.385
CC[C@H](C)[C@H](NC(=O)[C@H](CC(C)C)NC(=O)[C@H](C)NC(=O)[C@H](C)NC(=O)[C@H](CC(C)C)NC(=O)[C@H](C)N)C(=O)N[C@H](C(=O)N1CCC[C@H]1C(=O)N[C@H](C(=O)O)C(C)C)[C@@H](C)O [8.12mod] (H-ALAALITPV-OH)	0.0035
CC(C)C[C@H](NC(=O)[C@@H](N)Cc1ccccc1)C(=O)NCC(=O)N[C@@H](C)C(=O)N[C@@H](C)C(=O)NCC(=O)N[C@@H](CO)C(=O)N[C@H](C(=O)O)C(C)C [8.135mod] (H-FLGAAGSV-OH)	0.005
CC[C@H](C)[C@H](NC(=O)[C@H](CC(C)C)NC(=O)[C@H](CCC(N)=O)NC(=O)[C@H](CC(=O)O)NC(=O)[C@H](C)NC(=O)[C@H](CC(C)C)NC(=O)CN)C(=O)N[C@@H](Cc1c[nH]cn1)C(=O)N[C@@H](CCSC)C(=O)O [8.11natM] (H-GLADQLIHM-OH)	0.135
CC(C)C[C@H](NC(=O)[C@@H](N)Cc1ccccc1)C(=O)N[C@@H](CC(N)=O)C(=O)N[C@H](C(=O)N1CCC[C@H]1C(=O)N1CCC[C@H]1C(=O)N[C@@H](CC(C)C)C(=O)N[C@H](C(=O)O)C(C)C)[C@@H](C)O [8.111mod] (H-FLNTPPLV-OH)	0.0056
CC[C@H](C)[C@H](NC(=O)[C@H](CCCCN)NC(=O)[C@@H](NC(=O)[C@@H](N)Cc1ccc(O)cc1)[C@@H](C)CC)C(=O)N[C@@H](Cc1ccccc1)C(=O)N[C@H](C(=O)N[C@@H](CCSC)C(=O)N[C@H](C(=O)N[C@H](C(=O)O)C(C)C)[C@@H](C)CC)[C@@H](C)CC [8.93nat] (H-YIKIFIMIV-OH)	0.024
CC(C)C[C@H](NC(=O)[C@@H](N)Cc1ccccc1)C(=O)NCC(=O)N[C@@H](C)C(=O)N[C@@H](C)C(=O)NCC(=O)N[C@@H](CO)C(=O)N[C@H](C(=O)O)[C@@H](C)O [8.135nat] (H-FLGAAGST-OH)	0.87
CC[C@H](C)[C@H](NC(=O)[C@@H]1CCCN1C(=O)[C@@H]1CCCN1C(=O)[C@H](CC(C)C)NC(=O)[C@H](CCC(N)=O)NC(=O)[C@@H](N)CC(C)C)C(=O)N[C@@H](CCC(=O)O)C(=O)N[C@@H](CCCNC(=N)N)C(=O)N[C@@H](CC(C)C)C(=O)O [8.14nat] (H-LQLPPIERL-OH)	0.0073
CC[C@H](C)[C@H](NC(=O)[C@@H]1CCCN1C(=O)[C@H](Cc1ccccc1)NC(=O)[C@H](CC(C)C)NC(=O)[C@@H](N)CC(C)C)C(=O)N[C@@H](CO)C(=O)N1CCC[C@H]1C(=O)N[C@H](C(=O)O)C(C)C [8.115mod] (H-LLFPISPV-OH)	0.0162
CSCC[C@H](NC(=O)[C@H](Cc1c[nH]c2ccccc12)NC(=O)[C@H](CC(C)C)NC(=O)[C@@H](N)Cc1ccccc1)C(=O)NCC(=O)N[C@@H](Cc1ccc(O)cc1)C(=O)N[C@@H](CCC(=O)O)C(=O)N[C@@H](CC(C)C)C(=O)N[C@@H](Cc1c[nH]cn1)C(=O)O [8.21nat] (H-FLWMGYELH-OH)	0.445
CC[C@H](C)[C@H](NC(=O)CNC(=O)[C@H](CC(C)C)NC(=O)[C@H](C)N)C(=O)N[C@H](C(=O)N[C@@H](CCC(N)=O)C(=O)N[C@@H](C)C(=O)N[C@@H](CCC(N)=O)C(=O)O)[C@@H](C)CC [8.116nat] (H-ALGIIQAQ-OH)	0.097
CC(C)C[C@H](NC(=O)[C@H](C)N)C(=O)NCC(=O)N1CCC[C@H]1C(=O)N[C@@H](C)C(=O)N[C@@H](C)C(=O)N[C@H](C(=O)N[C@@H](CC(C)C)C(=O)N[C@H](C(=O)O)C(C)C)[C@@H](C)O [8.64mod] (H-ALGPAATLV-OH)	0.0013
CC(C)C[C@H](NC(=O)[C@@H]1CCCN1C(=O)[C@@H]1CCCN1C(=O)[C@H](CCCCN)NC(=O)[C@@H](NC(=O)[C@@H](N)CCCCN)[C@@H](C)O)C(=O)N1CCC[C@H]1C(=O)N[C@@H](CO)C(=O)N[C@H](C(=O)O)C(C)C [8.10natT] (H-KTKPPLPSV-OH)	0.039
CC[C@H](C)[C@H](NC(=O)[C@H](Cc1ccc(O)cc1)NC(=O)[C@H](CCSC)NC(=O)[C@H](Cc1c[nH]cn1)NC(=O)[C@H](Cc1c[nH]cn1)NC(=O)[C@H](CCCCN)NC(=O)[C@@H](NC(=O)[C@H](CC(C)C)NC(=O)[C@@H](N)CO)C(C)C)C(=O)O [4.14 variant] (H-SLVKHHMYI-OH)	0.123
CC(C)C[C@H](NC(=O)[C@@H](NC(=O)[C@H](C)NC(=O)[C@@H](NC(=O)[C@@H](NC(=O)[C@@H](N)CC(N)=O)[C@@H](C)O)C(C)C)[C@@H](C)O)C(=O)N[C@@H](Cc1ccc(O)cc1)C(=O)N[C@@H](CS)C(=O)N[C@H](C(=O)O)C(C)C [8.49nat] (H-NTVATLYCV-OH)	0.17
CSCC[C@H](NC(=O)[C@H](CCC(N)=O)NC(=O)[C@@H](NC(=O)[C@H](C)NC(=O)[C@@H](NC(=O)[C@H](CCCCN)NC(=O)[C@@H](N)CC(C)C)[C@@H](C)O)C(C)C)C(=O)N[C@@H](C)C(=O)N[C@H](C(=O)O)C(C)C [8.33nat] (H-LKTAVQMAV-OH)	1.33
CC(C)C[C@H](NC(=O)[C@H](CCCCN)NC(=O)[C@H](Cc1ccccc1)NC(=O)[C@H](CC(C)C)NC(=O)[C@@H](N)Cc1c[nH]c2ccccc12)C(=O)N[C@H](C(=O)N1CCC[C@H]1C(=O)N[C@H](C(=O)O)C(C)C)C(C)C [8.121mod] (H-WLFKLVPV-OH)	0.183
